US9320810B2, “HMGN2 peptides and related molecules that selectively home to tumor blood vessels and tumor cells” (Sanford-Burnham Medical Research Institute, priority 2002, dated 2016)
Where no end group is shown, it is not given here.

Assays:
HL-60 cells = test: Phage binding to cultured HL-60 cells in vitro; format: cell-based, human; conditions: phage-displayed HMGN1 exon 3 sequence
Method: (§1) In particular, about 1000 times more SEQ ID NO:5-displaying phage than non-recombinant T7 phage bound to cultured HL-60 or MDA-MB-435 cells in vitro. Similarly, SEQ ID NO:5-displaying also bound cell suspensions prepared from HL-60 tumors with a 1000-fold specificity relative to control T7 phage.
The phage binding assay was performed essentially as follows. Attachment of phage to cells was quantified by incubating 1×10^8 pfu of phage displaying SEQ ID NO: 9 for 60 minutes with 1×10^6 HL-60 cells at 4° C. in Tris-buffered saline with 1 mM Ca^+2 and 1 mM MgCl2. Bound phage were rescued after four washes with phosphate-buffered saline by adding 1 ml of bacteria for 7 minutes at room temperature. Bound phage were quantified by plating and counting pfu.
Binding of SEQ ID NO: 9-displaying phage to tumor cells was inhibited by free SEQ ID NO: 9 peptide in a dose dependent fashion. […] In contrast, background binding of non-recombinant phage was unaffected by free peptide. Specificity of cell binding by peptide SEQ ID NO: 9 was further confirmed by comparing HL-60 cell binding of phage expressing the HMGN2 exon 3 sequence PQRRSARLSA (SEQ ID NO: 11) to binding with phage expressing the homologous HMGN1 exon 3 sequence PKRRSARLSA (SEQ ID NO: 12).

[1] = test system: primary cells obtained from HL-60 xenograft tumors; test: Phage binding to primary cells obtained from HL-60 xenograft tumors; format: cell-based, human; conditions: phage-displayed
Source text: as §1
Phage displaying a set of sequences corresponding to fragments of the amino-terminal portion of HMGN2 (SEQ ID NO: 5) were constructed to localize the region responsible for cell binding and in vivo homing. Fragments were designed to follow the exon/intron boundaries of the HMGN2 gene. Inserts encoding the indicated fragments were amplified from the full length HMGN2 phage clone by PCR, purified, digested and directionally cloned into the T7 415-1 and 10-3 vectors. Phage were packaged, amplified and sequenced according to the manufacturer's instructions. Phage preparations were then tested for binding to primary cells obtained from HL-60 xenograft tumors. After a 1 hour incubation at 4° C., cells were washed, and bound phage quantified. […] Furthermore, phage displaying the N-terminal portion of the active fragment SEQ ID NO: 9, which corresponds to exon 3 of the HMGN2 gene, were prepared. These phage expressing the sequence PQRRSARLSA (SEQ ID NO: 11) bound to tumor cells 90-fold more than non-recombinant phage.

mitochondrial membranes = conditions: cited from earlier work
HL-60 xenograft tumors = test: Tissue localization of intravenously injected fluorescein-conjugated peptide, HL-60 xenograft mice; format: in vivo, mouse; conditions: tail vein
Method: To study peptide localization, fluorescein-conjugated SEQ ID NO: 9 or ARALPSQRSR (SEQ ID NO: 13) was injected into the tail vein of mice bearing HL-60 or MDA-MB-435 xenografts. Peptide injection was followed 10 minutes later by injection of biotinylated tomato lectin, a marker of the vasculature. After another five minutes, mice were perfused through the heart with fixative solution, and the organs dissected, sectioned and stained with streptavidin-AlexaFluor 594. Slides were counter-stained with DAPI and examined under an inverted fluorescent microscope.
As shown in FIGS. 3A and G-J, fluorescence predominantly localized to nuclei, with most of the tumor cells containing fluorescence positioned close to blood vessels. […] In some microscopic fields, SEQ ID NO: 9 fluorescence essentially was limited to the endothelial cells, clearly illustrating the expression of peptide SEQ ID NO: 9 within endothelial cells and their nuclei (see FIG. 3F).
Histological analyses were performed as follows. […] Biotin-conjugated lectin was detected with streptavidin-Alexa 594 (Molecular Probes; Eugene, Oreg.); the slides were mounted with Vectashield-DAPI (Vector Laboratories; Burlingame, Calif.), and examined under an inverted fluorescent microscope.

[2] = test system: human bone marrow mononuclear cells; test: Flow cytometry of fluorescein-labeled peptide binding to human bone marrow mononuclear cells; format: cell-based; conditions: FIG. 4, fluorescent peptide
Method: Fluorescein-labeled SEQ ID NO: 9 or control peptide SEQ ID NO: 13 (2 μM) were incubated with gradient-depleted bone marrow cells for one hour at 4° C. and analyzed in a flow cytometer. […] The SEQ ID NO: 9-positive cells were the size of lymphocytes, agranular, CD45-positive and mostly CD34-negative, a marker profile similar to that of the lineage-depleted murine bone marrow cells used in the in vitro phage selection.
Flow cytometry was performed as follows. Human bone marrow specimens represented excess material from samples collected for diagnostic purposes from adults with hematological malignancies following informed consent. A total of 2 ml of bone marrow was aspirated from the posterior iliac crest and stored in a citrate anticoagulant. Mononuclear cells were isolated by gradient centrifugation (Ficoll-Paque PLUS; Amersham Pharmacia Biotech; Uppsala, Sweden) and incubated in RPMI-1640 media supplemented with 10% FBS for two hours at 37° C. Cells subsequently were transferred to 4° C. and incubated with 1-2 μM fluorescein-conjugated peptide for 45 minutes before staining with PerCP- or PE-conjugated CD34 and CD45 antibodies (Beckton Dickinson Biosciences; San Jose, Calif.) for 30 minutes. Samples were analyzed with either a FACSCalibur or LSR flow cytometer (Beckton Dickinson Biosciences); 100,000 events were collected.

## PKRRSARLSA [SEQ ID NO: 12]
HL-60 cells
  reduction of HL-60 cell binding relative to HMGN2 phage expressing SEQ ID NO: 11: 90%

## PQRRSARLSA [SEQ ID NO: 11]
[1]
  binding to tumor cells relative to non-recombinant phage: 90 fold

## D(KLAKLAK)2: antimicrobial, pro-apoptotic peptide
Mitochondrial membranes
  concentration inducing marked mitochondrial swelling: 10 µM

## ARALPSQRSR (not fully specified (N-terminus); also: fluorescein label) [SEQ ID NO: 13, fluorescein-labeled scrambled exon 3 control peptide]
HL-60 xenograft tumors; fluorescein-conjugated peptide, about 15 minutes circulation
  fluorescence in tumor tissue: essentially undetectable in other tissues, including the HL-60 tumors
HL-60 xenograft tumors; fluorescein-labeled peptide, non-specific uptake
  fluorescence in kidneys: diffuse fluorescence accumulated in proximal tubules of kidneys
[2]
  number of cells in lower right quadrant (FACS): 1
  percentage of cells in lower right quadrant (FACS): 0.0
